Here are results for 1 compound from US8722897B2, “Metal complexes of thiourea and derivatives as metal delivering anti-cancer and anti-inflammatory agents” (priority 2010, dated 2014).

SMILES strings stand for the structures.

Data set [1] is described as follows: Cytotoxicity assay (MTT), HeLa. As to conditions: human, HeLa cells.
Experimental: Cells were seeded in a 96-well flat-bottomed microplate at 20,000 cells/well in 150 μL of growth medium solution. The compounds were dissolved in dimethyl sulfoxide. Serial dilution of each complex was added to each well with final concentration of DMSO≦1%. […] After incubation, 10 μL MTT reagent (5 mg/mL) was added to each well. The microplate was re-incubated at 37° C. in 5% CO2 for 4 h. Solubilization solution (10% SDS in 0.01 M HCl) (100 μL) was added to each well. The microplate was left in an incubator for 24 h. Absorbances at 550 nm were measured by a microplate reader.
The target of data set [2] is T1, TrxR1 (Rattus norvegicus, UniProt O89049).
T1 sequence (O89049 1-499): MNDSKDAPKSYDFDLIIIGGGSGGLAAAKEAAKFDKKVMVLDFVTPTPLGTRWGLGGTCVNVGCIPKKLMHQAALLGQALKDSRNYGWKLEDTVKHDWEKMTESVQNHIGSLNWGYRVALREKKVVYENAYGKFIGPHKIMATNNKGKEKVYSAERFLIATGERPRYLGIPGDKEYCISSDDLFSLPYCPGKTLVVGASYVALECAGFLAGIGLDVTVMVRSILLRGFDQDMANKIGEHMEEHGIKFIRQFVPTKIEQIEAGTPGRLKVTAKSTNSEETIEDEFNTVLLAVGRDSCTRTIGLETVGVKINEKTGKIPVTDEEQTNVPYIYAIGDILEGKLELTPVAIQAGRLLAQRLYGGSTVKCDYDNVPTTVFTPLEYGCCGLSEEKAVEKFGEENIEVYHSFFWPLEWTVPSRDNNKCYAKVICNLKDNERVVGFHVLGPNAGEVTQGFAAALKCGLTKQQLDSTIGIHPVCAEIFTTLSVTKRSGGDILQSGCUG
As to the kind of experiment: biochemical. Conditions: for Ki: progress curve analysis. The method, then: This was further studied by progress curve analysis (FIG. 8). ^24, 25 1 was added in excess (3-100 nM) to a reaction mixture containing 0.2 mM NADPH, 1 nM TrxR and 3 mM disulfide substrate 5,5′-dithiobis(2-nitrobenzoic acid) (DTNB) in phosphate buffer (pH 7.4). […] This was analyzed using Eq. 1 (Example 6), where P is the product concentration, vi and vf are the initial and final steady-state velocities, respectively, and kapp is the apparent first-order rate constant for establishment of the final steady-state inhibition. A plot of the kapp against the inhibitor concentrations followed a hyperbolic function (FIG. 8B). This is indicative of a two-step, tight-binding inhibition mechanism:
[formula] where EI is the initial collision complex, k3 is the forward isomerization rate, and k4 is the reverse isomerization rate. In this scheme, binding involves rapid formation of an initial collision complex (EI) that subsequently undergoes isomerization to the final slow dissociating enzyme-inhibitor complex (EI*). The k3, k4 and the dissociation constant of the initial collision complex EI (Ki′) can be obtained by fitting the data to Eq. 2.
1 was added in excess (3-100 nM) to a reaction mixture containing 0.2 mM NADPH, 1 nM TrxR1, 3 mM disulfide substrate 5,5′-dithiobis(2-nitrobenzoic acid) (DTNB), 100 mM phosphate buffer, pH 7.4 and 1 mM EDTA. The progress curves are non-linear, showing two-phase equilibria typical of slow-onset tight-binding inhibition. The data was fit into Eq. 1 using GraphPad Prism 3.0 software, P=vft+((vi−vf/kapp)(1−e^−kappt) (1) where P is the product concentration, vi and vf are the initial and final steady-state velocities, respectively, and kapp is the apparent first-order rate constant for establishment of the final steady-state inhibition. A plot of the kapp against the inhibitor concentrations followed a hyperbolic function (FIG. 8B). This is indicative of a two-step, tight-binding inhibition mechanism:
[formula] where EI is the initial collision complex, k3 is the forward isomerization rate, and k4 is the reverse isomerization rate. […]

The nature of data set [3]: Cytotoxicity assay (MTT), NCI-H460. As to conditions: human, NCI-H460 cells.
Experimental: Cells were seeded in a 96-well flat-bottomed microplate at 20,000 cells/well in 150 μL of growth medium solution. The compounds were dissolved in dimethyl sulfoxide. Serial dilution of each complex was added to each well with final concentration of DMSO≦1%. The microplate was incubated at 37° C., 5% CO2, 95% air in a humidified incubator for 72 h. After incubation, 10 μL MTT reagent (5 mg/mL) was added to each well. The microplate was re-incubated at 37° C. in 5% CO2 for 4 h. Solubilization solution (10% SDS in 0.01 M HCl) (100 μL) was added to each well. The microplate was left in an incubator for 24 h. Absorbances at 550 nm were measured by a microplate reader.
The target of data set [4] is T2, Recombinant rat TrxR1 (Rattus norvegicus, UniProt O89049).
T2 construct: purchased ICMO Corp, Sweden (so in the source)
T2 sequence (O89049 1-499): T1 sequence (O89049 1-499)
Put plainly: biochemical. As to conditions: preformed EI*. The protocol: 1 nM Recombinant rat TrxR1 (ICMO Corp, Sweden) was reduced with 0.2 mM NADPH and then incubated with 0.3-10 nM of 1 for 30 min in a buffer of 100 mM phosphate buffer, pH 7.4 and 1 mM EDTA. The residual activities were measured using 0.75, 1.5 or 3 mM DTNB (FIG. 7A). The data were fit into Eq. 1 using GraphPad Prism 3.0 software. vs/vo=(Et−Ki−It+((It+Ki′−Et)^2+(4KiEt))^1/2)/(2Et) (1) Eq. 1 describes the rate law of tight-binding inhibition in which case the inhibitor concentration is substantially depleted owing to formation of enzyme-inhibitor complex. In this equation, vo is the observed velocity in the absence of inhibitor, vs is the steady-state velocity in the presence of inhibitor, Et is the total enzyme concentration, and I is the inhibitor concentration. […] Ki=Ki*(1+S/Km) (2) Determination of Ki by Progress Curve Analysis ^35, 36 (FIG. 8)

`COc1ccc(N2CCN(c3ccc(OC)cc3)C2=[S+][Au-][S+]=C2N(c3ccc(OC)cc3)CCN2c2ccc(OC)cc2)cc1` [complex 1, [Au(TU)2]Cl]: the IC50 at 72 h in data set [1] was 14600 ± 700 nM; in data set [3], 3720 ± 300 nM. In addition, the “recovery of enzyme activities after removal of the free inhibitors by ultrafiltration” value in data set [2] was “could not be recovered”. Further, the Ki in data set [2] (dissociation constant of the initial collision complex EI (Ki′)) is 1.39 nM; in data set [2] (overall inhibitory constant Ki*, Eq. 3) it was 0.018 nM; in data set [4] (apparent inhibitory constant (Ki), 1 nM TrxR1, 30 min preincubation, steady state rate law) it was 0.67 nM; in data set [4] (inhibitory constant Ki*, corrected for substrate competition, Km 0.2 mM), 0.036 nM.
